Several values for one entry are separate records, joined by “and”; a condition that tells them apart may be missing. Equal entries are not always repeated.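 Abbreviation: GI50, concentration required for 50% inhibition of growth. TGI: total growth inhibition.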
What was measured:
Assay in all cases: NCI anticancer screen, dose series, 384-well format
SR leukemia = system: SR leukemia
CAKI-1 renal = system: CAKI-1 renal
PC-3 prostate = system: PC-3 prostate
NCI-H226 lung = system: NCI-H226 lung
M14 melanoma = system: M14 melanoma
HT29 colon = system: HT29 colon
MALME-3M melanoma = system: MALME-3M melanoma
UACC-62 melanoma = system: UACC-62 melanoma
COLO 205 colon = system: COLO 205 colon
HL-60(TB) leukemia = system: HL-60(TB) leukemia
SNB-75 CNS = system: SNB-75 CNS
RXF 393 renal = system: RXF 393 renal
SK-MEL-28 melanoma = system: SK-MEL-28 melanoma
OVCAR-4 ovarian = system: OVCAR-4 ovarian
BT-549 breast = system: BT-549 breast
UACC-257 melanoma = system: UACC-257 melanoma
OVCAR-5 ovarian = system: OVCAR-5 ovarian
A498 renal = system: A498 renal
SNB-19 CNS = system: SNB-19 CNS
SF-295 CNS = system: SF-295 CNS
MOLT-4 leukemia = system: MOLT-4 leukemia
U251 glioblastoma = system: U251 glioblastoma
EKVX NSCLC = system: EKVX NSCLC
NCI/ADR-RES ovarian = system: NCI/ADR-RES ovarian
HCC-2998 colon = system: HCC-2998 colon
SN12C renal = system: SN12C renal
MCF7 breast = system: MCF7 breast
NCI-H23 lung = system: NCI-H23 lung
RPMI-8226 leukemia = system: RPMI-8226 leukemia
NCI-H322M lung = system: NCI-H322M lung
TK-10 renal = system: TK-10 renal
MDA-MB-231 breast = system: MDA-MB-231 breast
SF-539 CNS = system: SF-539 CNS
HCT-15 colon = system: HCT-15 colon
ACHN renal = system: ACHN renal
OVCAR-3 ovarian = system: OVCAR-3 ovarian
SF-268 CNS = system: SF-268 CNS
SK-MEL-5 melanoma = system: SK-MEL-5 melanoma
OVCAR-8 ovarian = system: OVCAR-8 ovarian
HCT-116 colon = system: HCT-116 colon
A549 NSCLC = system: A549 NSCLC
KM12 colon = system: KM12 colon
HS 578T breast = system: HS 578T breast
MDA-MB-468 breast = system: MDA-MB-468 breast
SK-OV-3 ovarian = system: SK-OV-3 ovarian
NCI-H460 NSCLC = system: NCI-H460 NSCLC
LOX IMVI melanoma = system: LOX IMVI melanoma
MDA-MB-435 melanoma = system: MDA-MB-435 melanoma
NCI-H522 lung = system: NCI-H522 lung
T-47D breast = system: T-47D breast
DU-145 prostate = system: DU-145 prostate
HOP-62 NSCLC = system: HOP-62 NSCLC
IGROV1 ovarian = system: IGROV1 ovarian
HOP-92 NSCLC = system: HOP-92 NSCLC

With CON(C)C(=O)N1N=C(c2cc(F)ccc2F)SC1(CCCN)c1ccccc1 (stereo not drawn) the GI50 (SR leukemia) was < 0.01 µM, the TGI (SR leukemia) was < 0.01 µM and the GI50 (CAKI-1 renal) was 2.26 µM and 2.08 µM. The TGI (CAKI-1 renal) was 19.2 µM and 19.3 µM, the GI50 (PC-3 prostate) was < 0.01 µM and the TGI (PC-3 prostate) was 15.3 µM and 12.8 µM. The GI50 (NCI-H226 lung) was 10.2 µM and 2.24 µM, the TGI (NCI-H226 lung) was 22 µM and 16.9 µM and the GI50 (M14 melanoma) was < 0.01 µM. For the same molecule, the TGI (M14 melanoma) was < 0.01 µM, the GI50 (HT29 colon) was < 0.01 µM and the TGI (HT29 colon) was 1.15 µM and 1.31 µM. For the same molecule, the GI50 (MALME-3M melanoma) was 1.19 µM and 1.26 µM, the TGI (MALME-3M melanoma) was 3.53 µM and 11.8 µM and the GI50 (UACC-62 melanoma) was < 0.01 µM. The TGI (UACC-62 melanoma) was 16.4 µM and 16.1 µM, the GI50 (COLO 205 colon) was < 0.01 µM and the TGI (COLO 205 colon) was < 0.01 µM. The GI50 (HL-60(TB) leukemia) was < 0.01 µM, the TGI (HL-60(TB) leukemia) was < 0.01 µM and the GI50 (SNB-75 CNS) was < 0.01 µM. The TGI (SNB-75 CNS) was 16 µM and 15.9 µM, the GI50 (RXF 393 renal) was < 0.01 µM and the TGI (RXF 393 renal) was 17.9 µM and 17.8 µM. The GI50 (SK-MEL-28 melanoma) was 2.38 µM and 11.6 µM, the TGI (SK-MEL-28 melanoma) was 19.6 µM and 24 µM and the GI50 (OVCAR-4 ovarian) was < 0.01 µM. For the same molecule, the TGI (OVCAR-4 ovarian) was 14 µM and 12.6 µM, the GI50 (BT-549 breast) was < 0.01 µM and the TGI (BT-549 breast) was 11.9 µM and 11.1 µM. For the same molecule, the GI50 (UACC-257 melanoma) was < 0.01 µM, the TGI (UACC-257 melanoma) was 2.29 µM and 2.47 µM and the GI50 (OVCAR-5 ovarian) was 0.0106 µM and < 0.01 µM. For the same molecule, the TGI (OVCAR-5 ovarian) was 0.0842 µM and < 0.01 µM, the GI50 (A498 renal) was < 0.01 µM and the TGI (A498 renal) was 14.5 µM and 13.2 µM. The GI50 (SNB-19 CNS) was < 0.01 µM, the TGI (SNB-19 CNS) was 11.7 µM and 7.12 µM and the GI50 (SF-295 CNS) was < 0.01 µM. For the same molecule, the TGI (SF-295 CNS) was 12.8 µM and 13.1 µM, the GI50 (MOLT-4 leukemia) was < 0.01 µM and the TGI (MOLT-4 leukemia) was < 0.01 µM. For the same molecule, the GI50 (U251 glioblastoma) was < 0.01 µM, the TGI (U251 glioblastoma) was 10.9 µM and 11.2 µM and the GI50 (EKVX NSCLC) was < 0.01 µM. The TGI (EKVX NSCLC) was 15.6 µM and 14.8 µM, the GI50 (NCI/ADR-RES ovarian) was 0.116 µM and 0.0175 µM and the TGI (NCI/ADR-RES ovarian) was 0.27 µM and 0.137 µM. The GI50 (HCC-2998 colon) was < 0.01 µM, the TGI (HCC-2998 colon) was < 0.01 µM and the GI50 (SN12C renal) was < 0.01 µM. The TGI (SN12C renal) was 14.7 µM and 16.6 µM, the GI50 (MCF7 breast) was < 0.01 µM and the TGI (MCF7 breast) was 11.9 µM and 12.1 µM. For the same molecule, the GI50 (NCI-H23 lung) was < 0.01 µM, the TGI (NCI-H23 lung) was 12.7 µM and 11.5 µM and the GI50 (RPMI-8226 leukemia) was < 0.01 µM. For the same molecule, the TGI (RPMI-8226 leukemia) was < 0.01 µM, the GI50 (NCI-H322M lung) was < 0.01 µM and the TGI (NCI-H322M lung) was 17.2 µM and 14.9 µM. The GI50 (TK-10 renal) was 0.0117 µM, the TGI (TK-10 renal) was 17.4 µM and the GI50 (MDA-MB-231 breast) was < 0.01 µM. The TGI (MDA-MB-231 breast) was 13.8 µM and 15.4 µM, the GI50 (SF-539 CNS) was < 0.01 µM and the TGI (SF-539 CNS) was 10.2 µM. The GI50 (HCT-15 colon) was < 0.01 µM, the TGI (HCT-15 colon) was 11.7 µM and the GI50 (ACHN renal) was 11.2 µM and 1.63 µM. The TGI (ACHN renal) was 23.3 µM and 19.6 µM, the GI50 (OVCAR-3 ovarian) was < 0.01 µM and the TGI (OVCAR-3 ovarian) was < 0.01 µM. For the same molecule, the GI50 (SF-268 CNS) was < 0.01 µM, the TGI (SF-268 CNS) was 15.7 µM and 15.3 µM and the GI50 (SK-MEL-5 melanoma) was < 0.01 µM. For the same molecule, the TGI (SK-MEL-5 melanoma) was < 0.01 µM, the GI50 (OVCAR-8 ovarian) was < 0.01 µM and the TGI (OVCAR-8 ovarian) was 14.5 µM and 13.4 µM. The GI50 (HCT-116 colon) was < 0.01 µM, the TGI (HCT-116 colon) was 11.2 µM and 11.4 µM and the GI50 (A549 NSCLC) was < 0.01 µM. For the same molecule, the TGI (A549 NSCLC) was 18.6 µM and 18.7 µM, the GI50 (KM12 colon) was < 0.01 µM and the TGI (KM12 colon) was 12.1 µM and 11.9 µM. For the same molecule, the GI50 (HS 578T breast) was < 0.01 µM, the TGI (HS 578T breast) was < 0.01 µM and the GI50 (MDA-MB-468 breast) was < 0.01 µM. For the same molecule, the TGI (MDA-MB-468 breast) was < 0.01 µM, the GI50 (SK-OV-3 ovarian) was < 0.01 µM and the TGI (SK-OV-3 ovarian) was 12.2 µM and 11.9 µM. The GI50 (NCI-H460 NSCLC) was < 0.01 µM, the TGI (NCI-H460 NSCLC) was < 0.01 µM and the GI50 (LOX IMVI melanoma) was < 0.01 µM. The TGI (LOX IMVI melanoma) was 10.5 µM and 11.1 µM, the GI50 (MDA-MB-435 melanoma) was < 0.01 µM and the TGI (MDA-MB-435 melanoma) was < 0.01 µM. The GI50 (NCI-H522 lung) was < 0.01 µM, the TGI (NCI-H522 lung) was < 0.01 µM and the GI50 (T-47D breast) was 0.0138 µM and < 0.01 µM. The TGI (T-47D breast) was 18.3 µM and 18.1 µM, the GI50 (DU-145 prostate) was < 0.01 µM and the TGI (DU-145 prostate) was < 0.01 µM. The GI50 (HOP-62 NSCLC) was < 0.01 µM, the TGI (HOP-62 NSCLC) was 14.5 µM and 13.8 µM and the GI50 (IGROV1 ovarian) was 1.84 µM and 1.13 µM. The TGI (IGROV1 ovarian) was 18.8 µM and 14.7 µM, the GI50 (HOP-92 NSCLC) was 10.1 µM and 8.95 µM and the TGI (HOP-92 NSCLC) was 21.8 µM and 21.6 µM.
